We go through 15 compounds from patent US20260217719A1, “CDK2 INHIBITORS” (BLUEPRINT MEDICINES CORPORATION, priority 2023, published 2026).

Like-named read-outs stand apart in the source and are kept apart here.

One assay has as its target T1, CDK2/Cyclin E (Homo sapiens, UniProt P24941).
T1 construct: purchased Eurofins 14-475
Briefly: Enzymatic phosphorylation activity assay (Caliper mobility shift), CDK2/Cyclin E. The assay is classed as biochemical. As for the experimental part:
(§1) Inhibitory effects of the compounds of the disclosure were measured in biochemical assays that measure the enzymatic phosphorylation activity of CDK enzyme in complex of Cyclin proteins phosphorylates 7.5 micromolar fluorescently labelled peptide substrate, 5-FAM-QSPKKG-CONH2, (FL-Peptide 18, Perkin Elmer, 760362) in the presence of adenosine-5′-triphosphate (ATP) and varying concentrations of the test compound in 100 mM 2-[4-(2-hydroxyethyl)piperazin-1-yl] ethanesulfonic acid (HEPES), pH 7.5, 10 mM MgCl2, 0.015% Brij-35, 1 mM dithiothreitol (DTT), 1.0% dimehylsulfoxide (DMSO). […] Reactions proceeded until between 10% to 20% total peptides were phosphorylated at room temperature (25° C.) and were terminated with 35 mM 2,2′,2″,2″-(ethane-1,2-diyldinitrilo)tetraacetic acid (EDTA). Product was detected using the Caliper mobility shift detection method where the phosphorylated peptide (product) and substrate were electrophoretically separated and measured. Percent activity was plotted against log concentration of compound and points to generate an apparent IC50. The following CDK enzymes in complex with different cyclin proteins were used in these assays: • CDK1/Cyclin B1, GST-tag (BPS, 40454), 1.5 nM used in the assay • CDK2/Cyclin E (Eurofins, 14-475), 1.25 nM used in the assays

Another assay has as its target T2, CDK1/Cyclin B1, GST-tag (Homo sapiens, UniProt P06493).
T2 construct: GST; purchased BPS 40454
The assay is described as follows: Enzymatic phosphorylation activity assay (Caliper mobility shift), CDK1/Cyclin B1. It is filed as biochemical. As for the experimental part:
as §1

A further assay concerns the target T3, CDK2/Cyclin E1 (Homo sapiens, UniProt P24941).
T3 construct: NV2641; host or cells: HEK-293
Briefly: NanoBRET cellular target engagement assay, CDK2/Cyclin E1 in HEK-293 cells. The assay is classed as cell-based. The conditions noted are these: HEK-293 cells transfected with CDK2-NanoLuc and CCNE1; tracer K10 0.5 μM; 2 hrs. Here is the method:
(§2) In the assay, HEK-293 cells were cultured to appropriate confluence before being transiently transfected with a mix of CDK2-NanoLuc® Fusion Vector (Promega, NV2781) and CCNE1 expression vector (Promega, NV2641) for CDK2 NanoBRET assays, or CDK1-NanoLuc® Fusion Vector (Promega, NV2701) and CCNB1 expression vector (Promega, NV2601) for CDK1 NanoBRET assay, by using lipid: DNA complexes formed with FuGENE HD transfection agent (Promega, E2311). The transfected cells were cultured overnight in 1% FBS Opti-MEM media to allow the expression to fully occur. Once the expression fully occurred, varying concentrations of the test compounds were added to the cells, before a cell-permeable, fluorescent tracer (tracer K10 from Promega, N2840) was added to achieve final tracer concentration of 0.5 μM. After the addition of Nano-Glo substrate (part of a kit, Promega, N2840) and Extracellular NanoLuc inhibitor (part of a kit, Promega, N2840) 2 hrs after tracer addition, the cellular engagement of the tracer and the competition with testing compounds to the target protein was assessed based on the resulting bioluminescence resonance energy transfer (BRET) signal. BRET ratio was generated by dividing the acceptor emission signal (610 nm) by the donor emission signal (450 nm) for each sample. […] All IC50 curves were calculated using a 4 parameter logistic nonlinear regression model.
(In general: BRET reads energy transfer from a luciferase to a nearby fluorophore.)

The next assay has as its target T4, CDK1/Cyclin B (Homo sapiens, UniProt P06493).
T4 construct: NV2601; host or cells: HEK-293
The assay is described as follows: NanoBRET cellular target engagement assay, CDK1/Cyclin B in HEK-293 cells. It is filed as cell-based. The conditions noted are these: HEK-293 cells transfected with CDK1-NanoLuc and CCNB1; tracer K10 0.5 μM; 2 hrs. As for the experimental part: as §2

[1] abbreviates: read-out: Enzyme CDK2/cyclin E IC50.
The mark [2] stands for this setting: read-out: Enzyme CDK1/cyclin B1 IC50.

T4 sequence (P06493 whole entry): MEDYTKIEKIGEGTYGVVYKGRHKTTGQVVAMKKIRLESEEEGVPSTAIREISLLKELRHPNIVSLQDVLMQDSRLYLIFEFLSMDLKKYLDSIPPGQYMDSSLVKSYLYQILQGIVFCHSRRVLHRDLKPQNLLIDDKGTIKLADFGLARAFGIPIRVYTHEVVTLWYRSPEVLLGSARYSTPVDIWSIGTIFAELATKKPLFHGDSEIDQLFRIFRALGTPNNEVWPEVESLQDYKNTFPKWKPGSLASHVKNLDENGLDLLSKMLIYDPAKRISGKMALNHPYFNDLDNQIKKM
T4 sequence (P14635 whole entry partner): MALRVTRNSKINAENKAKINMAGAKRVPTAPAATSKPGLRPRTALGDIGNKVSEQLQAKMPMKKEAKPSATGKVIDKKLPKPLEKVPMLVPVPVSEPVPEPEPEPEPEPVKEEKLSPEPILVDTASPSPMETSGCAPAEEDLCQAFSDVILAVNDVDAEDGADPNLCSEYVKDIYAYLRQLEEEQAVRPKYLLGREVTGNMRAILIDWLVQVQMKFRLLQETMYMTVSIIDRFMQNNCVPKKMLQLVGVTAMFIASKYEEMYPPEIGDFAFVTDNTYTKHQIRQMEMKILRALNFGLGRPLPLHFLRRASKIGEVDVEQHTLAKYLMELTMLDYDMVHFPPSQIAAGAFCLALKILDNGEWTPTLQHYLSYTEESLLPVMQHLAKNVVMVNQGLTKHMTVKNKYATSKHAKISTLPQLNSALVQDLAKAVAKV
T2 sequence (P06493 whole entry): as the sequence (P06493 whole entry) above
T2 sequence (P14635 whole entry partner): as the sequence (P14635 whole entry partner) above

In the case of “(S)-7-chloro-N-(5-isopropyl-1H-pyrazol-3-yl)-5-(1-(pyridin-3-yl)ethyl)-5H-pyrrolo[2,3-b]pyrazin-3-amine [Example 6]”, the IC50 on CDK2/Cyclin E (apparent IC50, 1.25 nM enzyme, 7.5 micromolar FL-Peptide 18, 1.0 mM ATP or ATP Km, 25° C.) is 2.23 nM; on CDK1/Cyclin B1, GST-tag (apparent IC50, 1.5 nM enzyme, 7.5 micromolar FL-Peptide 18, 1.0 mM ATP or ATP Km, 25° C.), 869 nM.
In the case of `CC(C)c1cc(Nc2cnc3ccn([C@@H](C)c4cccnc4)c3n2)n[nH]1` [Example 3, (S)—N-(5-isopropyl-1H-pyrazol-3-yl)-5-(1-(pyridin-3-yl)ethyl)-5H-pyrrolo[2,3-b]pyrazin-3-amine], the IC50 at CDK2/Cyclin E (setting [1]) stood at 0.03 nM; at CDK1/Cyclin B1, GST-tag (setting [2]), 40 nM.
With `C[C@@H](c1cccnc1)n1ccc2ncc(Nc3cc(OC(F)F)[nH]n3)nc21` [Example 5, (S)—N-(5-(difluoromethoxy)-1H-pyrazol-3-yl)-5-(1-(pyridin-3-yl)ethyl)-5H-pyrrolo[2,3-b]pyrazin-3-amine], the IC50 at CDK2/Cyclin E (setting [1]) was 0.22 nM; at CDK1/Cyclin B1, GST-tag (setting [2]) it was 224 nM.
For `Cc1cc(Nc2cnc3ccn(Cc4cccnn4)c3n2)n[nH]1` [Example 24, N-(5-methyl-1H-pyrazol-3-yl)-5-(pyridazin-3-ylmethyl)-5H-pyrrolo[2,3-b]pyrazin-3-amine], the IC50 worked out at 105 nM on CDK2/Cyclin E1 and 3820 nM on CDK1/Cyclin B.
For the compound `CC(C)c1cc(Nc2cnc3ccn([C@H](C)c4cccnc4)c3n2)n[nH]1` [Example 4, (R)—N-(5-isopropyl-1H-pyrazol-3-yl)-5-(1-(pyridin-3-yl)ethyl)-5H-pyrrolo[2,3-b]pyrazin-3-amine], the IC50 at CDK2/Cyclin E (setting [1]) amounted to 0.31 nM; at CDK1/Cyclin B1, GST-tag (setting [2]), 54 nM.
`COc1cc(Nc2cnc3ccn(Cc4cccnc4)c3n2)n[nH]1` [Example 18, N-(5-methoxy-1H-pyrazol-3-yl)-5-(pyridin-3-ylmethyl)-5H-pyrrolo[2,3-b]pyrazin-3-amine]: the IC50 turned out to be 10.3 nM on CDK2/Cyclin E1 and 660 nM against CDK1/Cyclin B.
The corresponding values for `COc1cc(Nc2cnc3ccn(C[C@H]4CCCN(C)C4)c3n2)n[nH]1` [Example 21, (S)—N-(5-methoxy-1H-pyrazol-3-yl)-5-((1-methylpiperidin-3-yl)methyl)-5H-pyrrolo[2,3-b]pyrazin-3-amine] are 1630 nM and over 10000 nM.
Turning to `CN1CCC[C@@H](Cn2ccc3ncc(Nc4cc(OC(F)F)[nH]n4)nc32)C1` [Example 28, (R)—N-(5-(difluoromethoxy)-1H-pyrazol-3-yl)-5-((1-methylpiperidin-3-yl)methyl)-5H-pyrrolo[2,3-b]pyrazin-3-amine], the IC50 against CDK2/Cyclin E1 was 112 nM; against CDK1/Cyclin B it was 8310 nM.
The corresponding values for `C[C@@H](C1CCOCC1)n1ccc2ncc(Nc3cc(OC(F)F)[nH]n3)nc21` [Example 11, (S)—N-(5-(difluoromethoxy)-1H-pyrazol-3-yl)-5-(1-(tetrahydro-2H-pyran-4-yl)ethyl)-5H-pyrrolo[2,3-b]pyrazin-3-amine] are 1.2 nM and 71.7 nM.
The corresponding values for `c1cncc(Cn2ccc3ncc(Nc4cc(C5COC5)[nH]n4)nc32)c1` [Example 16, N-(5-(oxetan-3-yl)-1H-pyrazol-3-yl)-5-(pyridin-3-ylmethyl)-5H-pyrrolo[2,3-b]pyrazin-3-amine] are 10.9 nM and 291 nM.
With `CC(C)c1cc(Nc2cnc3ccn(CC4CCOCC4)c3n2)n[nH]1` [Example 1, N-(5-isopropyl-1H-pyrazol-3-yl)-5-((tetrahydro-2H-pyran-4-yl)methyl)-5H-pyrrolo[2,3-b]pyrazin-3-amine], the IC50 on CDK2/Cyclin E (setting [1]) is 0.44 nM; on CDK1/Cyclin B1, GST-tag (setting [2]), 115 nM.
Turning to `c1cnnc(Cn2ccc3ncc(Nc4cc([C@@H]5CCOC5)[nH]n4)nc32)c1` (single isomer, unassigned) [Example 25, (S)-5-(pyridazin-3-ylmethyl)-N-(5-(tetrahydrofuran-3-yl)-1H-pyrazol-3-yl)-5H-pyrrolo[2,3-b]pyrazin-3-amine or (R)-5-(pyridazin-3-ylmethyl)-N-(5-(tetrahydrofuran-3-yl)-1H-pyrazol-3-yl)-5H-pyrrolo[2,3-b]pyrazin-3-amine], the IC50 at CDK2/Cyclin E1 was found to be 128 nM; at CDK1/Cyclin B, 2780 nM.
`FC(F)Oc1cc(Nc2cnc3ccn(CC4CCOCC4)c3n2)n[nH]1` [Example 2, N-(5-(difluoromethoxy)-1H-pyrazol-3-yl)-5-((tetrahydro-2H-pyran-4-yl)methyl)-5H-pyrrolo[2,3-b]pyrazin-3-amine]: the IC50 on CDK2/Cyclin E (setting [1]) is 0.71 nM; at CDK1/Cyclin B1, GST-tag (setting [2]), 163 nM.
As to `N#Cc1cc(Nc2cnc3ccn(Cc4cccnc4)c3n2)n[nH]1` [Example 20, 3-((5-(pyridin-3-ylmethyl)-5H-pyrrolo[2,3-b]pyrazin-3-yl)amino)-1H-pyrazole-5-carbonitrile], the IC50 on CDK2/Cyclin E1 amounted to 112 nM; at CDK1/Cyclin B, 7560 nM.
The corresponding values for `FC(F)Oc1cc(Nc2cnc3ccn(C[C@@H]4CCCNC4)c3n2)n[nH]1` [Example 27, (R)—N-(5-(difluoromethoxy)-1H-pyrazol-3-yl)-5-(piperidin-3-ylmethyl)-5H-pyrrolo[2,3-b]pyrazin-3-amine] are 16.9 nM and 3580 nM.
